Measured values taken from patent publication US8324282B2, “Alkylating agent combinations in the treatment of cancer” (Case Western Reserve University, priority 1999, dated 2012).

Assays:
HCT116 cells [1] = assay: Growth inhibition assay (MTT), HCT116; format: cell-based, human; details: HCT116; MX 6 mM plus H2O2 0-150 μM 1 hr
Method: In this experiment, a growth inhibition assay was carried out with H2O2, an oxidizing agent that mimics the effect of chemotherapeutic agents and radiation. Cells in the exponential phase were plated (1×10^4) in 24-well tissue culture plates. After attachment overnight, the cells were incubated with hydrogen peroxide (H2O2) (0-150 μM) or MX (6 mM) plus H2O2 for 1 hr. Five days after treatment, the media was discarded, and 100 μl of MTT (5 mg/ml in PBS) was added in 1 ml fresh media to each well for 4 hrs at 37° C. The MTT solution was then removed, and the formazan crystals were dissolved in 200 μl/well of DMSO for 20 min and changes in absorbance were determined at A540nm. Percentage growth inhibition was calculated by comparison of the A540nm reading from treated versus control cells.
The agents contemplated for combinations with MX in this example are agents which incorporate into DNA and are repaired by BER to form AP sites. Cell-growth inhibition was carried out with HCT116 cells to test MX-potentiated cytotoxicity of iododeoxyuridine (IUdR), which has been recognized as a radiosensitizing agent since the early 1960's.

[2] = tested on: AP sites in calf thymus DNA; assay: Competitive AP site binding assayed by Aldehyde Reactive Probe (ARP); details: MX 5-20 mM
Source text: 1. Analysis of chemical—modified AP Sites assayed by Aldehyde Reactive Probe (ARP). This is a competitive assay to measure the reactivity with AP site between ARP reagent (Dojindo Molecular Technologies Inc., Gaithersburg, Md.) and the screening compounds. ARP and MX have a similar reactivity with AP sites. They react specifically with an aldehyde group that is open ring form of the AP sites. Thus this assay will allow identification of compounds with potential to block AP site repair based on the binding affinity and efficiency to AP sites of screening compounds compared to ARP and MX.
a. AP site standard preparation: AP sites were produced in a calf thymus DNA by heat/acid-buffer solution. Intact calf thymus DNA was added to sodium citrate buffer (10 mM sodium citrate containing 10 mM NaH2PO4 and 10 mM NaCl, pH 5.0) and held at 70° C. for 30 min. The reaction was stopped by chilling rapidly on ice, and the DNA was then precipitated with cold ethanol, washed with 70% ethanol, dried, and resuspended in sterilized distilled water.
b. […] After NC membrane was rinsed with washing buffer containing NaCl (0.26 M), EDTA (1 mM), Tris-HCI (20 mM), and Tween 20 (1%), ARP-AP sites are visualized with ECL reagents (Amersham Corp.) (FIG. 22A) and quantitated by scanning densitometer (FIG. 22B).

HCT116 xenograft = HCT116 xenograft tumor response in nude mice; format: in vivo; details: HCT116 xenograft; Table 2 doses: TMZ 120, MX 2, MX+TMZ 2/120 mg/kg; daily for 5 days
AP-endonuclease (APE) = assay: AP site cleavage by AP-endonuclease (APE); format: biochemical
Method: 2. AP sites cleavaged by AP-endonuclease (APE). […] The assay may be performed as follows (see also FIGS. 23A and B):
a. AP site is prepared by replacing single nucleoside with deoxyuridine in duplex oligonucleotides (40 mer).
b. Regular AP site is produced in the duplex oligonucleotides by human uracil DNA glycosylase (LIDGase, Trevigen, Gaithersburg, Md.) to remove the uracil residue.
c. To generate MX-adducted AP site substrates: the UDG-treated duplex oligonucleotides are mixed with 10 mM MX in buffer containing 10 mM KPO4, pH 7.1 and incubated at 37° C. After 30 min, the substrates are recovered by ethanol precipitation, lyophilized, resuspended in water, and stored at −20° C.
d. APE-cleavage reaction: DNA substrates containing either regular AP-sites or chemicalmodified AP sites are incubated with APE (Trevigen, Gaithersburg, Md.) for 30 min and reactants are precipitated with 100% cold ethanol, washed with 70% ethanol and resuspended in TE buffer. The reactants are resolved by denaturing 20% polyacrylamide gel electrophoresis and visualized by silver staining (Silver Staining Kit, Pharmacia Biotech).

HCT116 cells [3] = assay: Colony survival assay, HCT116; format: cell-based, human; details: HCT116
Source text: Chemicals and Reagents. BG was generously provided by Dr. Robert Moschel (Frederick Cancer Research and Development Center, National Cancer Institute). Stock solution was made in dimethylsulfoxide. TMZ and BCNU were obtained from the Drug Synthesis and Chemistry Branch, Drug Therapeutic Program, National Cancer Center Institute. PD128763 was a gift from Park-Davis Pharmaceutical Division. 6-AN, 3-AB, MX and methylmethane sulfonate (MMS) were purchased from Sigma (ST. Louis, Mo.). Stock solutions of PD128763, 3-AB and 6-AN were prepared by dissolving in dimethylsulfoxide and added to cell culture at a final concentration of <1% DMSO, when cells were treated with these compounds. MX was dissolved in sterilized water (pH 7.0). All stock solutions were kept at −20° C. BCNU was prepared fresh in 0.5 ml of 100% ethanol, diluted in PBS, and used with in 10 min. Colony Survival Assay. SW480 cells were obtained from the ATCC. HCT116 cells were obtained from R. Boland, University of Michigan Medical Center. All cell lines were cultured in appropriate growth medium.
Cells (2000/dish) were plated, adhered for 18 hrs and treated with TMZ or
MMS plus or minus modifiers such as […], MX, 6-AN, 3-AB or PD128763, according to experimental protocol. After treatment, cells were washed and fresh medium was replaced. The cells were grown for a further 7 days prior to staining with methylene blue for determination of colonies containing more than 50 cells. Comparisons of drug induced cytotoxicity consisted of a calculation of the dose modification factor (DMF), defined as the ratio of the IC50 of either TMZ or MMS in the absence to that in the presence of indicted modifier(s), i.e., DMF═IC50 for TMZ alone/IC50 for TMZ plus modifier(s).

`CON` [MX, methoxyamine] was tested, and the “sensitivity to killing induced by H2O2” value (HCT116 cells [1]) was “significantly increased sensitivity”, the “AP binding sites blocked (relative reduction of ARP-detected AP sites by densitometry)” value [2] was 38-80% and the “Tumor growth delays” value (HCT116 xenograft) was 2.2 ± 0.4 days. The “cleavage of modified AP sites by APE” value (AP-endonuclease (APE)) was “resistant to cleavage”, the “cytotoxicity of MX alone” value (HCT116 cells [3]; 6 mM MX) was “nontoxic” and the “DMF of MMS” value (HCT116 cells [3]; MMS 0-3 mM plus 6 mM MX 1 hr vs MMS alone) was 2.3. For the same compound, the “DMF (IC50 for TMZ alone/IC50 for TMZ plus modifier)” value (HCT116 cells [3]; modifier plus TMZ vs TMZ alone) was 3.1 fold and the “effect of modifier on BCNU cytotoxicity” value (HCT116 cells [3]; without BG) was “No enhancement”.
